Results: ChEMBL document CHEMBL5058643, “Data for DCP probe BI-2081” (2022)

Columns and labels:
[1] = target: Adenosine receptor A2a (Homo sapiens) (UniProt P29274); test: A2A/HU Eurofins SafetyScreen44 (BI); details: Compound concentration 10.0 uM
[2] = target: Voltage-dependent L-type calcium channel subunit alpha-1C (Rattus norvegicus, UniProt P22002); test: CA+/DHPSI/RA Eurofins SafetyScreen44 (BI); details: compound concentration 10 uM, read-out: % Ctrl
[3] = target: T1, Alpha-2A adrenergic receptor (Homo sapiens) (UniProt P08913); test: ALPHA2A/H Eurofins SafetyScreen44 (BI)
T1 sequence (whole entry): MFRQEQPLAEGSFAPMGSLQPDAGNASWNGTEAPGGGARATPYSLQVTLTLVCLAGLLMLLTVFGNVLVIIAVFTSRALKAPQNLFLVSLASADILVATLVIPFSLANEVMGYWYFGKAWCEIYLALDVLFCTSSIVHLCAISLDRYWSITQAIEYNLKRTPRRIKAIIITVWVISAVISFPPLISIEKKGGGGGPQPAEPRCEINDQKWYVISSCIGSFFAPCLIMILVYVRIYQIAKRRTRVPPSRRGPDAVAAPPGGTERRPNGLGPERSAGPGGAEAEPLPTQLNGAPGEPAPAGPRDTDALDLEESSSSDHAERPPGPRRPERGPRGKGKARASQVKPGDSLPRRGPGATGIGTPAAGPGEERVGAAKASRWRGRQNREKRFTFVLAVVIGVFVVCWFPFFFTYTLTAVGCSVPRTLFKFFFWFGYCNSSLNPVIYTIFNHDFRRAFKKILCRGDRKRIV

[4] = target: Cannabinoid receptor 1 (Homo sapiens) (UniProt P21554); test: CB1 Eurofins SafetyScreen44 (BI); details: Compound concentration 10.0 uM
[5] = target: T2, Alpha-1A adrenergic receptor (Homo sapiens) (UniProt P35348); test: ALPHA1A/R Eurofins SafetyScreen44 (BI); details: Rattus norvegicus; Compound concentration 10.0 uM
T2 sequence (whole entry): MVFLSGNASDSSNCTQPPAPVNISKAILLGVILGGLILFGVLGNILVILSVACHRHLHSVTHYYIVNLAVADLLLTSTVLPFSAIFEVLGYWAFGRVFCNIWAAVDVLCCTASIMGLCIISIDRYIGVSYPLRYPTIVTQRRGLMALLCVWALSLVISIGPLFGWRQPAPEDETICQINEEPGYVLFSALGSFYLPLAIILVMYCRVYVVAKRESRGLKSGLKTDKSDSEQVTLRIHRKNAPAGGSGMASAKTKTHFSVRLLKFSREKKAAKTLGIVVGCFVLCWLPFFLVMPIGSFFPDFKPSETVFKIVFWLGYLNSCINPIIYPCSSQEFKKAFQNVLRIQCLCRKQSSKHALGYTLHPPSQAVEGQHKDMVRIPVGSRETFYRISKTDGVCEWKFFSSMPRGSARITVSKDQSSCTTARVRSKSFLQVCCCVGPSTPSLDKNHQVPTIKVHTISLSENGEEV

[6] = target: Endothelin-1 receptor (Homo sapiens) (UniProt P25101); test: ETA/HU Eurofins SafetyScreen44 (BI); details: Compound concentration 10.0 uM
[7] = target: Acetylcholine receptor subunit alpha (Homo sapiens) (UniProt P02708); test: NACH/H Eurofins SafetyScreen44 (BI); details: Compound concentration 10.0 uM
[8] = target: Beta-1 adrenergic receptor (Homo sapiens) (UniProt P08588); details: Compound concentration 10.0 uM
[9] = target: Voltage-dependent L-type calcium channel subunit alpha-1C (dihydropyridine site) (Rattus norvegicus, UniProt P22002); test: CA+/DHPSI/R Eurofins SafetyScreen44 (BI); parameters: mode of action inhibitor; details: rat brain, probe [3H](+)PN200-110, compound concentration 10 uM, read-out: % Ctrl
[10] = target: T3, 5-hydroxytryptamine receptor 1A (Homo sapiens) (UniProt P08908); test: 5HT1A/H Eurofins SafetyScreen44 (BI); details: Compound concentration 10.0 uM
T3 sequence (whole entry): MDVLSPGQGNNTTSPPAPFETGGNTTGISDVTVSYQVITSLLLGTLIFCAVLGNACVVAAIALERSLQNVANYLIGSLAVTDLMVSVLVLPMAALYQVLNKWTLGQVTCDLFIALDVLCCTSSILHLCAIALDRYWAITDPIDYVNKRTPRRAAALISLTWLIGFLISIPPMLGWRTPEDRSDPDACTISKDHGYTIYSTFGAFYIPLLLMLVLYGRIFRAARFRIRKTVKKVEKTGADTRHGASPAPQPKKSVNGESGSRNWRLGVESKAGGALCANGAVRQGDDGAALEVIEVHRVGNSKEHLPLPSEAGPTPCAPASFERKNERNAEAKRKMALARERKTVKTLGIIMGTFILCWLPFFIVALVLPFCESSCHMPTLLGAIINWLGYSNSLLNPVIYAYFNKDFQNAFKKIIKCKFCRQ

[11] = target: MAO-A (amine oxidase [flavin-containing] A) (Rattus norvegicus, UniProt P21396); test: MAO-A_ANTAG Eurofins SafetyScreen44 (BI); parameters: mode of action antagonist; scale not given: the % may be the effect or the level left; details: compound concentration 10 uM, read-out: % Ctrl
[12] = target: Neuronal acetylcholine receptor; alpha4/beta2 (Homo sapiens) (UniProt P17787+P43681); test: N_NEURO_A4B2 Eurofins SafetyScreen44 (BI); format: protein-complex assay; details: filed as agonist, Compound concentration 10.0 uM
[13] = target: Sodium-dependent serotonin transporter (Homo sapiens) (UniProt P31645); test: SLC6A4/H Eurofins SafetyScreen44 (BI); details: filed as antagonist, Compound concentration 10.0 uM
[14] = target: Delta-type opioid receptor (Homo sapiens) (UniProt P41143); test: DELTA2/H Eurofins SafetyScreen44 (BI); details: Compound concentration 10.0 uM
[15] = target: Gamma-aminobutyric acid receptor subunit alpha-1 (Rattus norvegicus) (UniProt P62813); test: BZD/CENTR/R Eurofins SafetyScreen44 (BI); details: Compound concentration 10.0 uM
[16] = target: D(2) dopamine receptor (Homo sapiens) (UniProt P14416); test: D2SH_AGON Eurofins SafetyScreen44 (BI); details: filed as agonist, Compound concentration 10.0 uM
[17] = target: T4, Muscarinic acetylcholine receptor M2 (Homo sapiens) (UniProt P08172); test: M2/H Eurofins SafetyScreen44 (BI); details: filed as antagonist, Compound concentration 10.0 uM
T4 sequence (whole entry): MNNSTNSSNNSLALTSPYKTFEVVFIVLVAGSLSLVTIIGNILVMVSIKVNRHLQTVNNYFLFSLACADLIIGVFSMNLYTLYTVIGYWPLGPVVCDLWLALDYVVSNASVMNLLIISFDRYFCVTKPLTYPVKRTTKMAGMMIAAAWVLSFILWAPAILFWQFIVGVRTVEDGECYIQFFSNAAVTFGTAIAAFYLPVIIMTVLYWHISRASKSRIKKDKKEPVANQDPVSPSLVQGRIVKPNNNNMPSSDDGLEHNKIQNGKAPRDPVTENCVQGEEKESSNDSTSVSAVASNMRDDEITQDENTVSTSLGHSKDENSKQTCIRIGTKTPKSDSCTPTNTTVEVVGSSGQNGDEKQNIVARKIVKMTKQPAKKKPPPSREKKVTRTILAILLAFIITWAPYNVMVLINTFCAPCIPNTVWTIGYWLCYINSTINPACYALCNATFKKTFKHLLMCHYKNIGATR

[18] = target: D(1A) dopamine receptor (Homo sapiens) (UniProt P21728); test: D1/H Eurofins SafetyScreen44 (BI); details: filed as antagonist, Compound concentration 10.0 uM

Chain of Beta-1 adrenergic receptor (Homo sapiens) (P08588 whole entry, looked up): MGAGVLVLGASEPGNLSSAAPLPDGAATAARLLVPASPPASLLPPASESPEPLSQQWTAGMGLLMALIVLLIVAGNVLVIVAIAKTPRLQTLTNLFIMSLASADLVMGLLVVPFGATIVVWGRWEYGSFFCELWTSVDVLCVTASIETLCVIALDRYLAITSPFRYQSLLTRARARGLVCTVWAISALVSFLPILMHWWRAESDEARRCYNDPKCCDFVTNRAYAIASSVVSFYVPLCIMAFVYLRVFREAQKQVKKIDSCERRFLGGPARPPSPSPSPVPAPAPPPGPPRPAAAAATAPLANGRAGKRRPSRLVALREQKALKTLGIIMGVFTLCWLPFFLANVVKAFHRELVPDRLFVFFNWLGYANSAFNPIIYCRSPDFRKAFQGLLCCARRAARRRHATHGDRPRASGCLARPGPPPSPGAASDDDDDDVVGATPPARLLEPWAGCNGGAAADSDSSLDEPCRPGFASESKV
Chain of Acetylcholine receptor subunit alpha (Homo sapiens) (P02708 whole entry): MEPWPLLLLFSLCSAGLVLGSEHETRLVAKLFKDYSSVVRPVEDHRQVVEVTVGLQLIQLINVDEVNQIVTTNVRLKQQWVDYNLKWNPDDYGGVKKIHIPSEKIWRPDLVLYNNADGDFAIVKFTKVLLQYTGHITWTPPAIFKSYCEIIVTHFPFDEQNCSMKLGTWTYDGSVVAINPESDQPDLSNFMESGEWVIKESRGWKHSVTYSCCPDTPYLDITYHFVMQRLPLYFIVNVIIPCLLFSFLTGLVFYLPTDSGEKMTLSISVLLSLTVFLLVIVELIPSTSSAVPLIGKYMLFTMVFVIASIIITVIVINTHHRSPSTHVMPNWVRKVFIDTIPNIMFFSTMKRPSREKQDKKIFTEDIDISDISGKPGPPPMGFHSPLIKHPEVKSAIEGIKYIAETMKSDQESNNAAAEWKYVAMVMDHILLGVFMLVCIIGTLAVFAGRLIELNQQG
Chain of D(2) dopamine receptor (Homo sapiens) (P14416 whole entry): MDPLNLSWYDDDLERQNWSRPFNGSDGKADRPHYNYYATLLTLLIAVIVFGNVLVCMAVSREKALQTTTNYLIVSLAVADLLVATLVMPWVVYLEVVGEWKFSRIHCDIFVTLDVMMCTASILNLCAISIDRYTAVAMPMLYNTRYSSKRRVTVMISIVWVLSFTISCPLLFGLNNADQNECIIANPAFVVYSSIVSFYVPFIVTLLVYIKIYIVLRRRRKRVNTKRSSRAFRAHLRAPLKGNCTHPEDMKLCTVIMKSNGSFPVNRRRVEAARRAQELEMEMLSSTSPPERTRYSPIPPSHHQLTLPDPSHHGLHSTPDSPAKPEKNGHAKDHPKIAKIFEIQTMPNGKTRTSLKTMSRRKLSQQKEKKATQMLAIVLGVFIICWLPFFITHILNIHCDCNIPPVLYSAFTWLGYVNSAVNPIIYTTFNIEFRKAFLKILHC
Chain of Voltage-dependent L-type calcium channel subunit alpha-1C (P22002 whole entry): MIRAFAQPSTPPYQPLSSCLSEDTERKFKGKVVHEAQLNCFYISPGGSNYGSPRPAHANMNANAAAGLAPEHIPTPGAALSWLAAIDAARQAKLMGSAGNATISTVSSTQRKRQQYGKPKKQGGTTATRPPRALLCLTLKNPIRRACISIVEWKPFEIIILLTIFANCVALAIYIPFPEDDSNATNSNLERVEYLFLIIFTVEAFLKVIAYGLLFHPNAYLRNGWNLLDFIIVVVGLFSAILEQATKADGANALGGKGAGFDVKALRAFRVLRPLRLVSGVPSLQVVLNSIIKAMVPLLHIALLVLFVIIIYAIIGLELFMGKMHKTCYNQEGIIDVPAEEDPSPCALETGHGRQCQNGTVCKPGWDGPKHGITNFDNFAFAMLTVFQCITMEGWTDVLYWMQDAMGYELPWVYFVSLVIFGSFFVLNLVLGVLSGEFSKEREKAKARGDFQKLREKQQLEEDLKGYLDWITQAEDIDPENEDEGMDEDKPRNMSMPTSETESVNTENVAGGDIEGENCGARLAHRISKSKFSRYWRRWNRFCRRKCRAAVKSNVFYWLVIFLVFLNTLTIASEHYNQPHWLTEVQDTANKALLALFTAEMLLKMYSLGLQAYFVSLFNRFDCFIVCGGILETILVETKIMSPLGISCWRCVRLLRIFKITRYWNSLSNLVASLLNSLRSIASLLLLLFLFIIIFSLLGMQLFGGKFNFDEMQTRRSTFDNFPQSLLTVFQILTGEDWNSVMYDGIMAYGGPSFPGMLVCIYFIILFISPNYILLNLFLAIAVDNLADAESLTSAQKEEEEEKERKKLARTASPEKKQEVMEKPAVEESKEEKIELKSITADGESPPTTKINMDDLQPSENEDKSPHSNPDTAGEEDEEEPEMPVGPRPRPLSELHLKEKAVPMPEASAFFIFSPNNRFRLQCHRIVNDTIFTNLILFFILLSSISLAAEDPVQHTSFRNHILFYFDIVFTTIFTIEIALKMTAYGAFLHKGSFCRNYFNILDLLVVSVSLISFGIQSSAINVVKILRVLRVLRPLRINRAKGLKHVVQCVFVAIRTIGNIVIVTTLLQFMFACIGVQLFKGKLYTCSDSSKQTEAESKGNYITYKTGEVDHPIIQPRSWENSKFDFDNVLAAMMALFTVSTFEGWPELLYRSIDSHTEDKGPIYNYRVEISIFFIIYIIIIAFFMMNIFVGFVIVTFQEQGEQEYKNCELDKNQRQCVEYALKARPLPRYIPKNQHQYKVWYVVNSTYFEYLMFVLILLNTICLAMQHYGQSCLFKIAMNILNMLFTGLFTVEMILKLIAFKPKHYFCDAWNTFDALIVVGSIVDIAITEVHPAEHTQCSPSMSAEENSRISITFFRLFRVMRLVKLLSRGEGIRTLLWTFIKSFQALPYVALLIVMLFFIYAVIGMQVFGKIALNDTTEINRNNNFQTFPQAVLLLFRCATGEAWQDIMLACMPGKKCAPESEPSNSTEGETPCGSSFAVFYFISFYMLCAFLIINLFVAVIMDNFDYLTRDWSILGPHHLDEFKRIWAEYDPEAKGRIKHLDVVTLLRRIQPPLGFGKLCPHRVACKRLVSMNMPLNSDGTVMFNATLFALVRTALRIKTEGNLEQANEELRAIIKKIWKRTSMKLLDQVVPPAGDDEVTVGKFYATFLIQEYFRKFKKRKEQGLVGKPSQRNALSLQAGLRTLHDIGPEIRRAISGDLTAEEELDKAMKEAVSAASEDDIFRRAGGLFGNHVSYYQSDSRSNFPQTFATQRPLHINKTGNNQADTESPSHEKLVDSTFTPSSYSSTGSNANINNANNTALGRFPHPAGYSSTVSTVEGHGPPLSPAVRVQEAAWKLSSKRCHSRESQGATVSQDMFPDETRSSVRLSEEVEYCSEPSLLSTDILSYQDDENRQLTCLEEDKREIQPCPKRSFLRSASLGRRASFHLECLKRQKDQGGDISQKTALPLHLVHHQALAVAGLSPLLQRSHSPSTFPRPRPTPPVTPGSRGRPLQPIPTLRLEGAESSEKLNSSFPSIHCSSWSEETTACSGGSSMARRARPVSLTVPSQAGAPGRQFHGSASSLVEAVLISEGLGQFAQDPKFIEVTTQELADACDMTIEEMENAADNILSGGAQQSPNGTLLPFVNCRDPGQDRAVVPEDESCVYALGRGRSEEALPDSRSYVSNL
Chain of Voltage-dependent L-type calcium channel subunit alpha-1C (dihydropyridine site) (P22002 whole entry): as above
Chain of Endothelin-1 receptor (Homo sapiens) (P25101 whole entry): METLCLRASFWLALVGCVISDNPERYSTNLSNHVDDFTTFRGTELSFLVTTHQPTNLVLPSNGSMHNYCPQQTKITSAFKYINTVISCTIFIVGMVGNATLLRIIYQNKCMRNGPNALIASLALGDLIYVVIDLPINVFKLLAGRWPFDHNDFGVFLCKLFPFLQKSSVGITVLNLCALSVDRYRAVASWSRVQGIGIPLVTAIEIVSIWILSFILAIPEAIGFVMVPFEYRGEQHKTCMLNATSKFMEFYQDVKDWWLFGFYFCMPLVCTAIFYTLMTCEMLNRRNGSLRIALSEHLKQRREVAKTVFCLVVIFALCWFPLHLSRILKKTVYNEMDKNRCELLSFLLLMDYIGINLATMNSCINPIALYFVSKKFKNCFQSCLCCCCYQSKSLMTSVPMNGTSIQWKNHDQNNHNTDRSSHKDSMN
Chain of Cannabinoid receptor 1 (Homo sapiens) (P21554 whole entry): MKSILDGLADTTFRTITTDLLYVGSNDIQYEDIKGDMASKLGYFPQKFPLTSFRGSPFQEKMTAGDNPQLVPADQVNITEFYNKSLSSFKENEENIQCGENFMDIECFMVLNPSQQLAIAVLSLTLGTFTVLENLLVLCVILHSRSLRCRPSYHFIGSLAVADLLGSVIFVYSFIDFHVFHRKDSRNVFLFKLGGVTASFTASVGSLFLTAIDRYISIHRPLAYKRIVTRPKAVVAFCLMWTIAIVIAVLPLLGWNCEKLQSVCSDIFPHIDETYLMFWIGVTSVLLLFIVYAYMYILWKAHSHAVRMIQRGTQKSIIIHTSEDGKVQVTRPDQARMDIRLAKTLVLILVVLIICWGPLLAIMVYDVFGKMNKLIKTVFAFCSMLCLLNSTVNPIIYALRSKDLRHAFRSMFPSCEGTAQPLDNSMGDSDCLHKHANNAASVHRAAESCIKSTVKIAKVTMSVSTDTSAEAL
Chain of Gamma-aminobutyric acid receptor subunit alpha-1 (Rattus norvegicus) (P62813 whole entry): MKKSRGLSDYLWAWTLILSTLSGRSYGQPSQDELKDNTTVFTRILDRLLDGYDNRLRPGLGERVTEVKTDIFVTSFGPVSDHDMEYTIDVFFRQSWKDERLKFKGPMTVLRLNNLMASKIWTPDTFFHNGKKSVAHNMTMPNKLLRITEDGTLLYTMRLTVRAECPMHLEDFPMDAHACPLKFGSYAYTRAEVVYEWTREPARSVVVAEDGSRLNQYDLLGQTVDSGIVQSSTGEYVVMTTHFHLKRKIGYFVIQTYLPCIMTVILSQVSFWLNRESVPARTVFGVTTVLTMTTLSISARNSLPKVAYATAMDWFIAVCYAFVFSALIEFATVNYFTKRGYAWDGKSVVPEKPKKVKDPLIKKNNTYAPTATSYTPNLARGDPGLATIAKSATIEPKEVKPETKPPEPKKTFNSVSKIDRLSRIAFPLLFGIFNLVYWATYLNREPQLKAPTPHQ

Cc1cc(OCCC(C)(C)O)cc(C)c1-c1ccc(F)c2c1CC[C@H]2Oc1ccc2c(c1)OC[C@H]2CC(=O)O
inactive: residual activity [1] 125% | residual activity ([3]; Compound concentration 0.1 uM) 93% | residual activity ([3]; Compound concentration 0.3 uM) 90% | residual activity ([3]; Compound concentration 1.0 uM) 83% | residual activity ([3]; Compound concentration 3.0 uM) 64% | residual activity [4] 100% | residual activity [5] 73% | residual activity [6] 91% | residual activity [7] 115% | inhibition [8] 4.62%
active: residual activity ([3]; Compound concentration 10.0 uM) 5.5%
90% (not active): activity at 10 µM [2]

COCCCS(=O)(=O)c1cc(C)c(-c2ccc(F)c3c2CC[C@H]3Oc2ccc3c(c2)OC[C@H]3CC(=O)O)c(C)c1
94% (not active): activity at 10 µM [11]
90% (not active): activity at 10 µM [9]
inactive: residual activity [10] 103% | residual activity [12] 112% | residual activity [13] 109% | residual activity [14] 89% | residual activity [15] 109% | residual activity [16] 88% | residual activity [17] 112% | residual activity [18] 87%
